From US20220193060A1, “Inhibition of IL-1 Induced Inflammation” (THIOLAB, LLC., priority 2019, published 2022)
“Also recorded” adds a separate entry of the source.

Tests used:
[1] = test system: IL-10; assay: LPS-stimulated macrophages, IL-10 ELISA; type: cell-based, murine; details: CPDS (e.g., 50 μM) 90 minutes before LPS (10 ug/ml), 24 to 48 hours
Procedure: (§1) An in vitro model of inflammation mediated by macrophages is used. Primary macrophages isolated from humans or non-human species (e.g., mice or rats) were used. A murine macrophage cell line RAW264.7 (CCRL-2278) was also used. Macrophages are treated with CPDS. […] Then the effect of CPDS on inflammation is assessed by comparing the levels of […] mediators IL-6 and IL-10. IL-10 and IL-6 were determined by ELISA. The level of IL-6 and IL-10 were compared to the level prior to CPDS treatment.

[2] = test system: RAW 264.7 cells; assay: Cell viability of RAW 264.7 cells; type: cell-based; details: murine RAW 264.7 cells
[3] = test system: IL-6; assay: LPS-stimulated macrophages, IL-6 ELISA; type: cell-based, murine
Procedure: as §1

[4] = test system: IL-1β; assay: IL-1β ELISA, PMA-treated THP-1 cells stimulated with IFNγ and LPS; type: cell-based, human; details: for Ave IL-Ib 1/10 Avg / Ave IL-Ib 1/10 Rep 1 / Ave IL-Ib 1/10 Rep 2 / Ave IL-Ib 2/28 Rep 1 / Ave IL-Ib 2/28 Rep 2 / Ave IL-Ib 2/28 Rep 3 / IL-1β Relative %: THP-1
Procedure: Methodology: The study included replicated tests of IL-1β levels with and without CPDS, as well as reference testing of untreated cells and cells treated with lactoferrin and clobetasol. A third test was conducted of IL-1 receptor […] (IL-1RA) receptor, to assist in distinguishing whether reductions in IL-1β levels were associated with secretion or receptor blocking (via the receptor antagonist). Cell viability studies were conducted for both sets of tests. Each of the tests used an ELISA model with the following protocols. 1. THP-1 cells were grown in (RPMI+10% FBS, 10 mM HEPES, 1 mM Sodium Pyruvate, and 0.05 mM 2-Mecaptpethanol) to P8. 2. Cells were plated at 30,000 cells per well in 120 ul with Media+20 ng/ml PMA+2× Genta. 3. […] Cells were treated according to plan below. 5. Cells were incubated for three more days at 37° C. and 5% CO2. 6. Cell supernatant were collected and ELISA was measured for IL-1RA, IL-1α, and IL-1β. 7. Plate was read at 490 nm until O.D reached 1.5. Day 1—1. THP-1+20 ng/ml PMA 30,000 cells per well 120 uL Day 3—1. Add Compound at 4× in 60 uL. Incubate for 2 hours. CPDS—800 uM (200 uM Final), lactoferrin—800 ug/mL (200 ug/ml Final) clobetasol −40 ng/mL (10 ng/mL Final). 2. […] Add 30 uL LPS at 8×—20 ng/ml (2.5 ng/ml final) in 30 uL (Wells 2-10) 4. Incubate for 3 days. Day 6—1. Collect 80 ul of sample 2 times and freeze for ELISA. 2. Develop with 15 uL of Substrate and read at 490 nm until plate reaches 1.5 OD. THP-1 is a spontaneously immortalized monocyte-like cell line, derived from the peripheral blood of a childhood case of acute monocytic leukemia, which has been extensively used to study monocyte/macrophage functions, mechanisms, signaling pathways, and nutrient and drug transport. This cell line has become a common model to estimate modulation of monocyte and macrophage activities.

[5] = CPDS 1.6 uM + 10 ng/ml IFNy + 2.5 ng/ml LPS
[6] = CPDS 3.1 uM + 10 ng/ml IFNy + 2.5 ng/ml LPS
[7] = CPDS 6.3 uM + 10 ng/ml IFNy + 2.5 ng/ml LPS
[8] = CPDS 12.5 uM + 10 ng/ml IFNy + 2.5 ng/ml LPS
[9] = CPDS 25.0 uM + 10 ng/ml IFNy + 2.5 ng/ml LPS
[10] = CPDS 50.0 uM + 10 ng/ml IFNy + 2.5 ng/ml LPS
[11] = CPDS 100.0 uM + 10 ng/ml IFNy + 2.5 ng/ml LPS
[12] = CPDS 200.0 uM + 10 ng/ml IFNy + 2.5 ng/ml LPS

SMILES: O=C(O)c1ccc(SSc2ccc(C(=O)O)cn2)nc1 [CPDS, 6,6′-dithiodinicotinic acid]
- expression level of IL-10 [1]: dramatically reduced
- cytotoxicity (cell viability) [2]: no cytotoxicity
- IL-6 levels / expression ([3]; FIG. 3, macrophages inflamed by LPS, dosage series of CPDS): dramatically reduced; also recorded: concentration dependent diminution
- expression level of IL-6 ([3]; macrophages, CPDS (e.g., 50 μM) 90 minutes before LPS (10 ug/ml), 24 to 48 hours): dramatically reduced
- activity on IL-6 compared with DEX ([3]; murine RAW 264.7 cells, LPS): more active
- secretion of IL-6 ([3]; murine RAW 264.7 cells, pre-treatment prior to LPS): drastically reduced
- neutralization of production of IL-1β in human cells ([4]; 25 μM): near neutralization
- Ave IL-Ib 1/10 Avg [4, 5]: 0.19 ng/mL
- Ave IL-Ib 1/10 Rep 1 [4, 5]: 0.19 ng/mL
- Ave IL-Ib 1/10 Rep 2 [4, 5]: 0.18 ng/mL
- Ave IL-Ib 2/28 Rep 1 [4, 5]: 0.32 ng/mL
- Ave IL-Ib 2/28 Rep 2 [4, 5]: 0.29 ng/mL
- Ave IL-Ib 2/28 Rep 3 [4, 5]: 0.30 ng/mL
- IL-1β Relative % [4, 5]: 114.2%
- Ave IL-Ib 1/10 Avg [4, 6]: 0.19 ng/mL
- Ave IL-Ib 1/10 Rep 1 [4, 6]: 0.21 ng/mL
- Ave IL-Ib 1/10 Rep 2 [4, 6]: 0.17 ng/mL
- Ave IL-Ib 2/28 Rep 1 [4, 6]: 0.30 ng/mL
- Ave IL-Ib 2/28 Rep 2 [4, 6]: 0.26 ng/mL
- Ave IL-Ib 2/28 Rep 3 [4, 6]: 0.28 ng/mL
- IL-1β Relative % [4, 6]: 105.2%
- Ave IL-Ib 1/10 Avg [4, 7]: 0.15 ng/mL
- Ave IL-Ib 1/10 Rep 1 [4, 7]: 0.15 ng/mL
- Ave IL-Ib 1/10 Rep 2 [4, 7]: 0.14 ng/mL
- Ave IL-Ib 2/28 Rep 1 [4, 7]: 0.23 ng/mL
- Ave IL-Ib 2/28 Rep 2 [4, 7]: 0.24 ng/mL
- Ave IL-Ib 2/28 Rep 3 [4, 7]: 0.24 ng/mL
- IL-1β Relative % [4, 7]: 88.7%
- Ave IL-Ib 1/10 Avg [4, 8]: 0.08 ng/mL
- Ave IL-Ib 1/10 Rep 1 [4, 8]: 0.09 ng/mL
- Ave IL-Ib 1/10 Rep 2 [4, 8]: 0.06 ng/mL
- Ave IL-Ib 2/28 Rep 1 [4, 8]: 0.13 ng/mL
- Ave IL-Ib 2/28 Rep 2 [4, 8]: 0.11 ng/mL
- Ave IL-Ib 2/28 Rep 3 [4, 8]: 0.12 ng/mL
- IL-1β Relative % [4, 8]: 45.8%
- Ave IL-Ib 1/10 Avg [4, 9]: 0.04 ng/mL
- Ave IL-Ib 1/10 Rep 1 [4, 9]: 0.05 ng/mL
- Ave IL-Ib 1/10 Rep 2 [4, 9]: 0.03 ng/mL
- Ave IL-Ib 2/28 Rep 1 [4, 9]: 0.04 ng/mL
- Ave IL-Ib 2/28 Rep 2 [4, 9]: 0.03 ng/mL
- Ave IL-Ib 2/28 Rep 3 [4, 9]: 0.04 ng/mL
- IL-1β Relative % [4, 9]: 13.7%
- Ave IL-Ib 1/10 Avg [4, 10]: 0.01 ng/mL
- Ave IL-Ib 1/10 Rep 1 [4, 10]: 0.01 ng/mL
- Ave IL-Ib 1/10 Rep 2 [4, 10]: 0.01 ng/mL
- Ave IL-Ib 2/28 Rep 1 [4, 10]: 0.02 ng/mL
- Ave IL-Ib 2/28 Rep 2 [4, 10]: 0.01 ng/mL
- Ave IL-Ib 2/28 Rep 3 [4, 10]: 0.02 ng/mL
- IL-1β Relative % [4, 10]: 6.1%
- Ave IL-Ib 1/10 Avg [4, 11]: 0.01 ng/mL
- Ave IL-Ib 1/10 Rep 1 [4, 11]: 0.01 ng/mL
- Ave IL-Ib 1/10 Rep 2 [4, 11]: 0.01 ng/mL
- Ave IL-Ib 2/28 Rep 1 [4, 11]: 0.03 ng/mL
- Ave IL-Ib 2/28 Rep 2 [4, 11]: 0.01 ng/mL
- Ave IL-Ib 2/28 Rep 3 [4, 11]: 0.02 ng/mL
- IL-1β Relative % [4, 11]: 8.2%
- Ave IL-Ib 1/10 Avg [4, 12]: 0.01 ng/mL
- Ave IL-Ib 1/10 Rep 1 [4, 12]: 0.01 ng/mL
- Ave IL-Ib 1/10 Rep 2 [4, 12]: 0.01 ng/mL
- Ave IL-Ib 2/28 Rep 1 [4, 12]: 0.02 ng/mL
- Ave IL-Ib 2/28 Rep 2 [4, 12]: 0.02 ng/mL
- Ave IL-Ib 2/28 Rep 3 [4, 12]: 0.02 ng/mL
- IL-1β Relative % [4, 12]: 6.8%
- ability of IFN-γ to stimulate the production of IL-1β ([4]; FIG. 1, clinically obtainable levels of CPDS): markedly reduce
- levels of IL-1β ([4]; FIG. 2, in the presence of LPS): substantially reduce
- secretion of IL-1β blocked ([4]; concentration as low as 50 uM CPDS): 94%
- neutralization of IL-1β ([4]; concentrations of 12.5 to 200 μM): complete neutralization
- reduction of measured IL-1β levels ([4]; concentrations of 12.5 to 200 μM, both tests): 92-99%
- neutralization of production of IL-1β in human cells ([4]; concentrations ranging from 50-200 μM): completely neutralize
